The results in this text go back to US11560372B2, “Heterocyclic compounds useful as modulators of acetylcholine receptors” (TAKEDA PHARMACEUTICAL COMPANY LIMITED, priority 2017, dated 2023).

In series [1] the target is T1, MDR1 (Homo sapiens, UniProt P08183).
T1 construct: expressed in transfected cells
The series can be described thus: MDR1 membrane permeability test. It is filed as in vitro ADME. Particulars: pH 7.4, efflux ratio (ER), Papp B to A / A to B, human MDR1-expressing LLC-PK1 cells, read-out: MDR1 substrate screening 1 μM (MDRSUB1)/Ratio (NUMBER). In outline:
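Human MDR1-expressing LLC-PK1 cells were grown for 3 days on 96-well polyethylene terephthalate Transwell supports (0.4 μm pores, 0.143 cm^2) seeded at 3.45×10^4 cells/well. After a 30 min preincubation in M199 medium with 10 mmol/L HEPES and 1% BSA (pH 7.4), drug was added apically or basolaterally. After 1 hr at 37° C, the opposite side was sampled and analyzed by LC-MS/MS. Efflux ratio was calculated from Papp B to A versus A to B.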

The target of series [2] is T2, human M1 receptor (hCHRM1) (Homo sapiens, UniProt P11229).
T2 construct: expressed in transfected cells
T2 sequence (P11229 1-460): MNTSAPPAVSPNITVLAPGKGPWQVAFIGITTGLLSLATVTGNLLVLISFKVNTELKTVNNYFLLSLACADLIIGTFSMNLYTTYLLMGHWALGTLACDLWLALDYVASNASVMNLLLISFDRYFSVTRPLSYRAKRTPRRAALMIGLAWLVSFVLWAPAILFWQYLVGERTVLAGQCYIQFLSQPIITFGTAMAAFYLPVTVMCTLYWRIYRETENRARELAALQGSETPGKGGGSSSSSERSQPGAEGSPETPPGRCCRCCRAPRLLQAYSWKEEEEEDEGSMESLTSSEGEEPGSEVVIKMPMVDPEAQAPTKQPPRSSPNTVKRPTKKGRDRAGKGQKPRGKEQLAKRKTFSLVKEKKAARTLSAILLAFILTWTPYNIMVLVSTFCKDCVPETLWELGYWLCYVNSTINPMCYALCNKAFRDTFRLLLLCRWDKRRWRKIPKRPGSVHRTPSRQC
In words: Measurement of M1 receptor positive allosteric modulator (M1PAM) activity, calcium fluorescence in CHO-K1 cells. It is filed as cell-based. Particulars: for activity (%) at 10 μM: 10 μM test compound, 100% = acetylcholine final concentration 1 μM, 0% = DMSO; for EC50: inflection point of concentration-dependent curve, in the presence of acetylcholine at EC20 concentration (final 0.8-1.0 nM), read-out: IP value. How it is done:
Measurement of M1 Receptor Positive Allosteric Modulator (M1PAM) Activity
The activity of a test compound in the presence of acetylcholine at EC20 concentration (final concentration 0.8-1.0 nM), which affords an action corresponding to about 20% of the maximum activity, was measured as PAM activity. The method is as follows. CHO-K1 cells stably expressing a human M1 receptor (hCHRM1) were plated on a 384-well black clear bottom plate (BD Falcon) at 5,000 cells/well, and cultured in an incubator at 37° C., 5% CO2 for 1 day. The medium in the cell plate was removed, and assay buffer A containing calcium indicator (Recording medium (DOJINDO LABORATORIES), 0.1% BSA (Wako Pure Chemical Industries, Ltd.), 2.5 μg/mL Fluo-4 AM (DOJINDO LABORATORIES), 0.08% Pluronic F127 (DOJINDO LABORATORIES), 1.25 mM probenecid (DOJINDO LABORATORIES)) was added at 30 μL/well. The cells were left standing in the incubator at 37° C., 5% CO2 for 30 min, and further left standing at room temperature for 30 min. A test compound prepared by diluting with assay buffer B (HBSS (Invitrogen), 20 mM HEPES (Invitrogen), 0.1% BSA) containing 3.2-4.0 nM acetylcholine was added at 10 μL/well, and the fluorescence was measured by FDSS/pCELL (Hamamatsu Photonics K.K.) for 1 min every for 1 second. With the definition that the amount of change in the fluorescence on addition of acetylcholine (final concentration 1 μM) is 100% and that on addition of DMSO instead of a test compound is 0%, the activity (%) of the test compound was calculated, and the inflection point in the concentration-dependent curve of the test compound was calculated as IP values.

T1 sequence (P08183 whole entry): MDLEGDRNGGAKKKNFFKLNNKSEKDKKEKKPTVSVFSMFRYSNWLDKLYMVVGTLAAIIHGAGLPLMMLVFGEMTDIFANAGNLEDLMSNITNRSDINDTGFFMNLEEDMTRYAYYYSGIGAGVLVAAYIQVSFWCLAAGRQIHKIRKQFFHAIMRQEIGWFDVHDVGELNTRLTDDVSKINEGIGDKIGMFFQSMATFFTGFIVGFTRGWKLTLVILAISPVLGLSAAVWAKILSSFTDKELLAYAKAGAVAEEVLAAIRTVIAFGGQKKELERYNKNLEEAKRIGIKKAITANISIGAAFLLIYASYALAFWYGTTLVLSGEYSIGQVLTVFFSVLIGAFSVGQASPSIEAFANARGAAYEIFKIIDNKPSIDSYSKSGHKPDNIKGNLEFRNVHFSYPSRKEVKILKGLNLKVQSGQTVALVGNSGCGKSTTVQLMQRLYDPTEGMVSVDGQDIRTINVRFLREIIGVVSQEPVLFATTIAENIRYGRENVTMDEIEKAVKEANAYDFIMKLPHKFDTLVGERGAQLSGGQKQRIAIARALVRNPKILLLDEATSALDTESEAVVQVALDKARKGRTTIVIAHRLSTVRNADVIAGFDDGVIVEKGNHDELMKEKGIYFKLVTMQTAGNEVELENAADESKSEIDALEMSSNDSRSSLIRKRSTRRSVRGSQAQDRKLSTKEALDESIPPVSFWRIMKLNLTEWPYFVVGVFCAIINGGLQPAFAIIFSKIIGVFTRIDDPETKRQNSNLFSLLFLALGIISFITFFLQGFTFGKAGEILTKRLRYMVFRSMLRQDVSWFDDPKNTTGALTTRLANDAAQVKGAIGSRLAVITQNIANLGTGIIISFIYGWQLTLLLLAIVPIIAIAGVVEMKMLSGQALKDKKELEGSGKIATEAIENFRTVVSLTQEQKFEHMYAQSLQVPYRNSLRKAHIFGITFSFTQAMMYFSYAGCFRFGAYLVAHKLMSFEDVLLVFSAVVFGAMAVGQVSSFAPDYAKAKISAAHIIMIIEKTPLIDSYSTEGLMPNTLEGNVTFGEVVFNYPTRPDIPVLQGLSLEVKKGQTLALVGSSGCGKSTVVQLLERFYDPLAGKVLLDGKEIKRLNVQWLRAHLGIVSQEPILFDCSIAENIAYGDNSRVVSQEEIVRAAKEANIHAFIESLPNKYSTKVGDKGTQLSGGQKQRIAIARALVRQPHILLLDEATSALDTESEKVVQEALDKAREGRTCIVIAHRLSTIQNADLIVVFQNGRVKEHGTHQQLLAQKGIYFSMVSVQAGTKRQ

As to `COc1cc2ncn([C@H]3CCOC[C@@H]3O)c(=O)c2cc1Cc1ccc(-c2cn(C)cn2)cc1` [Example 61, 1,5-anhydro-2,3-dideoxy-3-(7-methoxy-6-(4-(1-methyl-1H-imidazol-4-yl)benzyl)-4-oxoquinazolin-3 (4H)-yl)-L-threo-pentitol], the efflux ratio at 1 hr, 1 μM in series [1] worked out at 32. In addition, in series [2], the “activity (%) at 10 μM” value is on record as 108% and the EC50 stood at 2.2 nM.
The matching figures for `Cc1c(Cc2ccc(-c3cn(C)nn3)nc2)cc2c(=O)n([C@H]3CCOC[C@@H]3O)nnc2c1C` [Example 62, 1,5-anhydro-2,3-dideoxy-3-(7,8-dimethyl-6-((6-(1-methyl-1H-1,2,3-triazol-4-yl)pyridin-3-yl)methyl)-4-oxo-1,2,3-benzotriazin-3 (4H)-yl)-L-threo-pentitol]: 9.4, 107% and 2.5 nM.
With `Cc1c(Cc2ccc(C(=O)NC3(C)COC3)c(F)c2)cc2c(=O)n([C@H]3CCOC[C@@H]3O)cnc2c1C` [Example 65, 1,5-anhydro-2,3-dideoxy-3-(6-(3-fluoro-4-((3-methyloxetan-3-yl)carbamoyl)benzyl)-7,8-dimethyl-4-oxoquinazolin-3 (4H)-yl)-L-threo-pentitol], the efflux ratio at 1 hr, 1 μM in series [1] is 15. Further, in series [2], the “activity (%) at 10 μM” value was 109% and the EC50 turned out to be 3 nM.
Consider `Cc1c(Cc2ccc(C(=O)NCC(=O)N(C)C)c(F)c2)cc2c(=O)n([C@H]3CCOC[C@@H]3O)cnc2c1C` [Example 68, 1,5-anhydro-2,3-dideoxy-3-(6-(4-((2-(dimethylamino)-2-oxoethyl)carbamoyl)-3-fluorobenzyl)-7,8-dimethyl-4-oxoquinazolin-3 (4H)-yl)-L-threo-pentitol], for which the efflux ratio at 1 hr, 1 μM in series [1] was 19. Further, in series [2], the “activity (%) at 10 μM” value is 106% and the EC50 is 1.7 nM.
The matching figures for `Cc1c(Cc2ccc(-c3cnn(CC4CC4)c3)nc2)cc2c(=O)n([C@H]3CCOC[C@@H]3O)cnc2c1C` [Example 71, 1,5-anhydro-3-(6-((6-(1-(cyclopropylmethyl)-1H-pyrazol-4-yl)pyridin-3-yl)methyl)-7,8-dimethyl-4-oxoquinazolin-3(4H)-yl)-2,3-dideoxy-L-threo-pentitol]: 8, 107% and 2.5 nM.
Consider `COCCn1cc(-c2ccc(Cc3cc4c(=O)n([C@H]5CCOC[C@@H]5O)cnc4c(C)c3C)cn2)cn1` [Example 73, 1,5-anhydro-2,3-dideoxy-3-(6-((6-(1-(2-methoxyethyl)-1H-pyrazol-4-yl)pyridin-3-yl)methyl)-7,8-dimethyl-4-oxoquinazolin-3(4H)-yl)-L-threo-pentitol], for which the efflux ratio at 1 hr, 1 μM in series [1] was determined as 18. Further, in series [2], the “activity (%) at 10 μM” value turned out to be 109% and the EC50 is 1.4 nM.
The matching figures for `Cc1c(Cc2ccc(-c3cnn(C4CCOCC4)c3)nc2)cc2c(=O)n([C@H]3CCOC[C@@H]3O)cnc2c1C` [Example 75, 1,5-anhydro-2,3-dideoxy-3-(7,8-dimethyl-4-oxo-6-((6-(1-(tetrahydro-2H-pyran-4-yl)-1H-pyrazol-4-yl)pyridin-3-yl)methyl)quinazolin-3(4H)-yl)-L-threo-pentitol]: 13, 108% and 3 nM.
The matching figures for `Cc1c(Cc2ccc(C(=O)NCC3(O)CC3)c(F)c2)cc2c(=O)n([C@H]3CCOC[C@@H]3O)cnc2c1C` [Example 76, 1,5-anhydro-2,3-dideoxy-3-(6-(3-fluoro-4-(((1-hydroxycyclopropyl)methyl)-carbamoyl)benzyl)-7,8-dimethyl-4-oxoquinazolin-3 (4H)-yl)-L-threo-pentitol]: 15, 106% and 1.9 nM.
With `Cc1c(Cc2ccc(C(=O)NCCN3CCCC3=O)c(F)c2)cc2c(=O)n([C@H]3CCOC[C@@H]3O)cnc2c1C` [Example 77, 1,5-anhydro-2,3-dideoxy-3-(6-(3-fluoro-4-((2-(2-oxopyrrolidin-1-yl)ethyl)carbamoyl)benzyl)-7,8-dimethyl-4-oxoquinazolin-3 (4H)-yl)-L-threo-pentitol], in series [1], the efflux ratio at 1 hr, 1 μM was found to be 32. Moreover, in series [2], the “activity (%) at 10 μM” value is 107% and the EC50 came out at 2 nM.
The matching figures for `Cc1c(Cc2ccc(C(=O)NCC3COC3)c(F)c2)cc2c(=O)n([C@H]3CCOC[C@@H]3O)cnc2c1C` [Example 79, 1,5-anhydro-2,3-dideoxy-3-(6-(3-fluoro-4-((oxetan-3-ylmethyl)carbamoyl)benzyl)-7,8-dimethyl-4-oxoquinazolin-3 (4H)-yl)-L-threo-pentitol]: 26, 108% and 1.5 nM.
The matching figures for `Cc1c(Cc2ccc(C(=O)NC[C@@H]3CCCO3)c(F)c2)cc2c(=O)n([C@H]3CCOC[C@@H]3O)cnc2c1C` [Example 80, 1,5-anhydro-2,3-dideoxy-3-(6-(3-fluoro-4-(((2S)-tetrahydrofuran-2-ylmethyl)carbamoyl)benzyl)-7,8-dimethyl-4-oxoquinazolin-3 (4H)-yl)-L-threo-pentitol]: 9.5, 107% and 1.9 nM.
The matching figures for `Cc1c(Cc2ccc(C(=O)NC3CS(=O)(=O)C3)c(F)c2)cc2c(=O)n([C@H]3CCOC[C@@H]3O)cnc2c1C` [Example 83, 1,5-anhydro-2,3-dideoxy-3-(6-(4-((1,1-dioxidethietan-3-yl)carbamoyl)-3-fluorobenzyl)-7,8-dimethyl-4-oxoquinazolin-3 (4H)-yl)-L-threo-pentitol]: 19, 109% and 1.5 nM.
In the case of `Cc1c(Cc2ccc(C(=O)NCCS(C)(=O)=O)c(F)c2)cc2c(=O)n([C@H]3CCOC[C@@H]3O)cnc2c1C` [Example 84, 1,5-anhydro-2,3-dideoxy-3-(6-(3-fluoro-4-((2-(methylsulfonyl)ethyl)-carbamoyl)benzyl)-7,8-dimethyl-4-oxoquinazolin-3 (4H)-yl)-L-threo-pentitol], the efflux ratio at 1 hr, 1 μM in series [1] was 11. In series [2], the “activity (%) at 10 μM” value amounted to 106% and the EC50 is 1.9 nM.
The matching figures for `CCOCCNC(=O)c1ccc(Cc2cc3c(=O)n([C@H]4CCOC[C@@H]4O)cnc3c(C)c2C)cc1F` [Example 85, 1,5-anhydro-2,3-dideoxy-3-(6-(4-((2-ethoxyethyl)carbamoyl)-3-fluorobenzyl)-7,8-dimethyl-4-oxoquinazolin-3(4H)-yl)-L-threo-pentitol]: 10, 107% and 2.1 nM.
Regarding `COCCCNC(=O)c1ccc(Cc2cc3c(=O)n([C@H]4CCOC[C@@H]4O)cnc3c(C)c2C)cc1F` [Example 86, 1,5-anhydro-2,3-dideoxy-3-(6-(3-fluoro-4-((3-methoxypropyl)carbamoyl)benzyl)-7,8-dimethyl-4-oxoquinazolin-3(4H)-yl)-L-threo-pentitol], in series [1], the efflux ratio at 1 hr, 1 μM was determined as 7.8. In series [2], the “activity (%) at 10 μM” value amounted to 110% and the EC50 was determined as 3.1 nM.
As for `Cc1c(Cc2ccc(C(=O)NC3CC3)c(F)c2)cc2c(=O)n([C@H]3CCOC[C@@H]3O)cnc2c1C` [Example 87, 1,5-anhydro-3-(6-(4-(cyclopropylcarbamoyl)-3-fluorobenzyl)-7,8-dimethyl-4-oxoquinazolin-3(4H)-yl)-2,3-dideoxy-L-threo-pentitol], in series [1], the efflux ratio at 1 hr, 1 μM came to 8.7. Besides, in series [2], the “activity (%) at 10 μM” value was determined as 111% and the EC50 was 2.3 nM.
